{"source": "patent US20100216875A1", "about": "“METHODS OF TREATING ALZHEIMER'S DISEASE” (priority 2006, published 2010)", "key": {"APPswe/In mice [1]": {"test_system": "APPswe/In mice", "assay": "Morris water maze test in APPswe/In mice", "type": "in vivo, mouse", "conditions": "Mean + % SEM; for Latency Period: same treatment as APPIn mice", "protocol": "(§1) Cathepsin B inhibitors were also evaluated in another transgenic mouse that expressed human APP containing both the Swedish mutant β-secretase and the London γ-secretase site (APPswe/In).\n(§2) The status of memory impairment in the APPIn or APPswe/In mice with and without administration of select compounds was assessed by the Morris water maze test. The water maze test is widely used in mouse AD animal models to evaluate cognitive impairment in such AD models. Water maze tests were conducted as previously described (87-89).\nDrug-treated and vehicle-treated mice were tested in the Morris water maze test. Mice were trained in a 1.2 meter open field water maze. The pool was filled to a depth of 30 cm with water and maintained at 25° C. The escape platform (10 cm square) was placed 1 cm below the surface of the water. During the trials, the platform was removed from the pool. The cued test was carried out in the pool surrounded with white curtains to hide any extra-maze cues. Aβ animals underwent non-spatial pretraining (NSP) for three consecutive days. These trials were to prepare the animals for the final behavioral test to determine whether there was sufficient retention of memory to find the platform. These trials were not recorded since they were for training purposes only. For the training and learning studies, the curtains were removed to extra maze cues to allow identification of animals with swimming impairments. On day 1, the mice were placed on the hidden platform for 20 seconds (trial 1), for trials 2-3 animals were released in the water at a distance of 10 cm from the cued-platform or hidden platform (trial 4) and allowed to swim to the platform. On the second day of trails, the hidden platform was moved randomly between the center of the pool and the center of each quadrant. The animals were released into the pool, randomly facing the wall and were allowed 60 seconds to reach the platform (3 trials). In the third trial, animals were given three trials, two with a hidden platform and one with a cued platform. Two days following the NSP, the animals were subjected to final behavioral trials (Morris water maze test). For these trials (3 per animal), the platform was placed in the center of one quadrant of the pool and the animals were released facing the wall in a random fashion. Each animal was allowed to find the platform or swim for 60 seconds (latency period, the time it takes to find the platform). Aβ animals were tested within 4-6 hours of dosing and were randomly selected for testing by an operator blinded to the test group."}, "[2]": {"test_system": "β-secretase activity as measured by the APP-derived CTFβ fragment", "assay": "guinea pig brain CTFβ (β-secretase activity) after icv infusion", "type": "in vivo", "conditions": "0.15 mg/kg/day infused for 7 days; western blot", "protocol": "To better evaluate the effects of CA074Me on β-secretase activity, relative brain levels of CTRβ were assessed by western blots. The CTRβ fragment results from processing of APP at the β-secretase site, which produces the C-terminal β-secretase fragment (CTFβ) of 12 kDA on SDS-PAGE gels.\nBrains from animals described in relation to FIG. 10 were extracted and analyzed for CTFβ by […].\nCathepsin B inhibitors were administered directly into the brain by icy infusion with minipumps in time course studies at different doses. Guinea pigs were infused with compounds using Alzet pumps (2.5 μl/hr, with compounds at 1 mg/ml in saline) for 7 and 30 days, and other times. This initial dose of compound was selected because E64d and CA074Me are effective at this dose. Each treatment group consisted of eight to ten guinea pigs, including the vehicle control group."}, "[3]": {"test_system": "transgenic APPIn mice (London mutant human APP)", "assay": "Morris water maze test in transgenic APPIn mice", "type": "in vivo, mouse", "conditions": "icv 0.015 mg/kg/day, 28 days, p<0.005", "protocol": "Transgenic mice expressing human APP containing the London mutation (APPIn) mimic AD function and pathology in that they are cognitively deficient, have brain amyloid plaque and elevated Aβ (8). […] CA074Me or E64d were administered by icy infusion in brains (0.015 mg/kg/day) for 28 days (8 animals per treatment group).\nThus, irreversible cathepsin B inhibitors are efficacious in this AD animal model, causing an 80% improvement in cognitive function and a 50% decrease in amyloid plaque load and brain Aβ. Thus, these tests indicate that Cathepsin B inhibitors are effective at reversing the cognitive deficit caused by AD\nas §2\nDrug-treated and vehicle-treated mice were tested in the Morris water maze test. Mice were trained in a 1.2 meter open field water maze. The pool was filled to a depth of 30 cm with water and maintained at 25° C. The escape platform (10 cm square) was placed 1 cm below the surface of the water. During the trials, the platform was removed from the pool. […] These trials were not recorded since they were for training purposes only. […]"}, "aspartyl protease, BACE1": {"target": "aspartyl protease, BACE1 (Homo sapiens, UniProt P56817)", "sequence (P56817 46-501)": "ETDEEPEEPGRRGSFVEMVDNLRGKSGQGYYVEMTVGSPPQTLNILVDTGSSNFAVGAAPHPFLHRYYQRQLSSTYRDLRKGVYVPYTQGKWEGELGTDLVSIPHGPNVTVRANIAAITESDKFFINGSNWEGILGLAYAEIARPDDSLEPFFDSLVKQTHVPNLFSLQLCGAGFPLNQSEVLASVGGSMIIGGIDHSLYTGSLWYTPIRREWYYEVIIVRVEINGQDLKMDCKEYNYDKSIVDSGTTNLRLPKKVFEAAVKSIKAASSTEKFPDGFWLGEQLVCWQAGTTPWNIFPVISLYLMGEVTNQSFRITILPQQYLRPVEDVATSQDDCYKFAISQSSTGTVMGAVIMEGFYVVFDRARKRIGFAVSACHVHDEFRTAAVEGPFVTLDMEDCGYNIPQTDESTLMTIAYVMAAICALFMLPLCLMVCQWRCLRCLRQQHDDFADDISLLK", "assay": "effect on BACE1", "type": "biochemical"}, "APPswe/In mice [4]": {"test_system": "APPswe/In mice", "assay": "amyloid load, Aβ, CTFβ and sAPPα in APPswe/In mice", "type": "in vivo, mouse", "conditions": "Mean + % SEM", "protocol": "as §1\nThe mouse model of AD expressing human APP containing the Swe mutant β-secretase site and the London mutation (APPswe/In) also overproduce Aβ, and develop neuropathology and behavior that mimic AD. APPswe/In was generated by site-directed mutagenesis at the β-secretase site of the APPIn to convert Lys-Met to the mutant Asn-Leu. Both APPswe/In and APPIn mouse strains were created in a C57BL/6 mouse background using the Thy-1.2 expression cassette driven by the Thy-1 promoter containing an SV40 polyadenylation site. The APPswe/In mice differ from the APPIn in that APPswe/In mice contain the Swedish mutant β-secretase site rather than the wt β-secretase site found in APPIn.\nDirect icy infusion into the brain was the first route of administration to be tested to establish the effectiveness of reversible inhibitors in the brain to provide cognitive improvement, and reduction in brain Aβ peptides and amyloid plaques. Icy infusion was performed as described above for the irreversible inhibitors with use of the Alzet minipump. The initial dose utilized was the same dosage used for E64d and CA074Me in the APPIn mice or APPswe/In mice Administration of these compounds began at approximately 1-2 months of age and infusion was conducted for periods of 1, 2, 4, and 8 months (or other time periods). Administration of the select reversible compounds by direct icy infusion into mouse brains was conducted initially at 0.025 μl/hr of 1 mg/ml, other doses may be examined based on results with the first dose. Each time point was conducted with about 8-10 animals and 8-10 normal control animals (age-matched) (or greater number of mice per treatment group, if necessary, for appropriate statistical evaluation). At the end of each of these infusion periods, cognitive testing and assessment of Aβ peptide levels with plaque pathology was evaluated. At each of these time points, mice were tested for cognition, and then sacrificed for evaluation of Aβ and neuropathology in the brain\nAfter behavioral testing was completed, the mice were sacrificed for analyses of Aβ40 and Aβ42 peptide levels, and neuropathology. One half brain (one hemisphere) was utilized to prepare brain extracts for measurement of Aβ40 and Aβ42 levels by ELISA assays, and the other half brain was used for neuropathological evaluation. Procedures for preparation of brain extracts and ELISA assays for Aβ peptides are those used for analyses of guinea pig brains\nAβ-related neuropathology was assessed in cortex and hippocampus of brains. The relative extent of Aβ immunoreactivity in neurons and glial cells was assessed. Immunostaining for Aβ was conducted as described previously (58) Aβ-related neuropathology was assessed in cortex and hippocampus of brains, as well as other regions of the brain as controls. Brain tissue was fixed in 4% paraformaldehyde overnight, and then processed to paraffin. Serial sections were obtained, deparaffinized and washed in TBS buffer. Each section was blocked with appropriate normal serum (mouse or rabbit), and subjected to primary anti-Aβ antibody for detection of amyloid deposits. Sections were then stained with DAB ([…]) with the Vector ABC Elite kit (Vector Laboratories). Amyloid areas were imaged with microscopic computer-assisted analysis system using the NIH Image Analysis Software."}}}
{"smiles": "CCCNC(=O)[C@H]1O[C@@H]1C(=O)N[C@H](C(=O)N1CCC[C@H]1C(=O)OC)[C@@H](C)CC", "note": "[CA074Me]", "values": [{"measurement": "Distance Traveled", "setting": "APPswe/In mice [1]", "value": "246 + 13%"}, {"measurement": "Latency Period", "setting": "APPswe/In mice [1]", "value": "37 + 12%"}, {"measurement": "decrease in the amount of brain CTFβ", "setting": "[2]", "value": 50, "unit": "%"}, {"measurement": "average latency period (Morris water maze) vs control", "setting": "[3]", "value": "significantly lower average latency period"}, {"measurement": "effect on BACE1", "setting": "aspartyl protease, BACE1", "value": "do not affect"}, {"measurement": "Amyloid load", "setting": "APPswe/In mice [4]", "value": "1.07 + 4%"}, {"measurement": "Aβ40", "setting": "APPswe/In mice [4]", "value": "91 + 4%"}, {"measurement": "Aβ42", "setting": "APPswe/In mice [4]", "value": "97 + 3%"}, {"measurement": "CTFβ", "setting": "APPswe/In mice [4]", "value": "97 + 3%"}, {"measurement": "sAPPα", "setting": "APPswe/In mice [4]", "value": "101 + 4%"}]}
{"smiles": "CCOC(=O)[C@H]1O[C@@H]1C(=O)N[C@@H](CC(C)C)C(=O)NCCC(C)C", "note": "[E64d]", "values": [{"measurement": "Distance Traveled", "setting": "APPswe/In mice [1]", "value": "270 + 12%"}, {"measurement": "Latency Period", "setting": "APPswe/In mice [1]", "value": "40 + 10%"}, {"measurement": "average latency period (Morris water maze) vs control", "setting": "[3]", "value": "significantly lower average latency period"}, {"measurement": "effect on BACE1", "setting": "aspartyl protease, BACE1", "value": "do not affect"}, {"measurement": "Amyloid load", "setting": "APPswe/In mice [4]", "value": "1.06 + 4%"}, {"measurement": "Aβ40", "setting": "APPswe/In mice [4]", "value": "92 + 7%"}, {"measurement": "Aβ42", "setting": "APPswe/In mice [4]", "value": "101 + 3%"}, {"measurement": "CTFβ", "setting": "APPswe/In mice [4]", "value": "100 + 3%"}, {"measurement": "sAPPα", "setting": "APPswe/In mice [4]", "value": "98 + 3%"}]}
